Like-named read-outs stand apart in the source and are kept apart here.
Experiments:
human TET2 [1] = biological target: T1, human TET2 (Homo sapiens, UniProt Q6N021); conditions: for inhibition of TET2: additional experiments, data not shown, assay format not stated; for IC50 / inhibition of TET2 activity (in words): MALDI assay; for IC50: resynthesized/synthesized compounds, highest concentration 200 µM; for inhibition of TET2 activity (in words): synthesized compounds
TET1 = system: TET1; set-up: method as in PMID 35586434; conditions: cited from earlier work
TET2 = system: TET2; set-up: method as in PMID 35586434; conditions: cited from earlier work
human TET2 [2] = biological target: T1, human TET2; conditions: FRET assay dose response; three independent experiments with technical duplicates
Protocol: Use of a DNA duplex terminally labelled with a FRET donor/acceptor dye pair (Cy3/Cy5) thereby enables measuring the amount of caC product generated from an mC duplex by TET (Fig. 1A). […] We identified an universal buffer system (50 mM potassium acetate, 20 mM Tris-acetate, 10 mM magnesium acetate, 100 μg ml^−1 BSA, pH 7.9) that was compatible with the activity of both TET2 and MspI, and thus was applicable to one pot reactions without intermediate purification steps. We incubated 0.5 μM of the DNA duplex with TET2 at different concentrations under aerobic conditions and in the presence of essential assay components, i.e. α-KG, ascorbate, dithiothreitol (DTT), and Fe(II) at 37 °C and pH 8 for 1 hour. We then added 20 U MspI enzyme to determine the caC level generated by TET2-mediated oxidation.
For screening, we premixed the annealed oligonucleotides with TET2 and all other essential components except Fe(II) in 1536-well plates, followed by the acoustic transfer of test compounds into each well at a final concentration of 50 μM. […] In order to distinguish the false-positive hits, we normalized the final Cy5 fluorescence of each well to its respective initial value immediately after MspI addition. […]
fluorescence signals were recorded on an Infinite® M1000 (Tecan). […]

SMILES: O=C(O)c1ccnc(Br)c1 [2-bromoisonicotinic acid, reference compound]
- inhibition of TET2 (human TET2 [1]): no inhibition

SMILES: Nc1nc(=O)n(-c2cccc(-c3ccccc3)c2)cc1Cl [Bobcat339]
- inhibition of TET1 (TET1): not be an inhibitor
- inhibition of TET2 (TET2): not be an inhibitor

SMILES: CC(=O)N(O)CCCCCNC(=O)CCC(=O)N(O)CCCCCNC(=O)CCC(=O)N(O)CCCCCN [DFOA, deferoxamine]
- IC50 (human TET2 [2]): 46 µM

SMILES: CC(C)OS(=O)(=O)c1ccc(F)c2ncc(I)cc12 [compound 5]
- IC50 (human TET2 [1]): > 200 µM

SMILES: CCCCCOS(=O)(=O)c1ccc(F)c2ncc(I)cc12 [compound 6]
- IC50 (human TET2 [1]): > 200 µM

SMILES: NS(=O)(=O)c1ccc(F)c2ncc(I)cc12 [compound 8]
- IC50 (human TET2 [1]): 86.6 ± 5.6 µM

SMILES: CNS(=O)(=O)c1ccc(F)c2ncc(I)cc12 [compound 9]
- inhibition of TET2 activity (in words) (human TET2 [1]): inactive
- IC50 (human TET2 [1]): > 200 µM

SMILES: O=S(=O)(c1ccc(F)c2ncc(I)cc12)N1CCCC1 [compound 10]
- inhibition of TET2 activity (in words) (human TET2 [1]): inactive
- IC50 (human TET2 [1]): > 200 µM

SMILES: O=S(=O)(Nc1ccccc1)c1ccc(F)c2ncc(I)cc12 [compound 11]
- IC50 (human TET2 [1]): 23.9 ± 4.1 µM

SMILES: O=S(=O)(NCc1ccccc1)c1ccc(F)c2ncc(I)cc12 [compound 13]
- IC50 (human TET2 [1]): > 200 µM

SMILES: O=S(=O)(NCCc1ccccc1)c1ccc(F)c2ncc(I)cc12 [compound 14]
- IC50 (human TET2 [1]): > 200 µM

SMILES: O=S(=O)(Nc1cccc(O)c1)c1ccc(F)c2ncc(I)cc12 [compound 16]
- IC50 (human TET2 [1]): > 200 µM

SMILES: Nc1ccccc1S(=O)(=O)O [o-anilinesulfonic acid, reference compound]
- inhibition of TET2 (human TET2 [1]): no inhibition

SMILES: Cc1ccc(S(=O)(=O)O)cc1 [p-toluenesulfonic acid, reference compound]
- inhibition of TET2 (human TET2 [1]): no inhibition
